From patent US20250186436A1 (4E Therapeutics, Inc., priority 2021, published 2025)
Read-outs that look alike come from different tables or passages of the source.

What was measured:
[1] = tested on: eIF4E phosphorylation at Serine 209 in HEK 293 cells; assay: eIF4E phosphorylation in HEK 293 cells (phospho-specific antibody, fluorescent plate reader); format: cell-based; conditions: Homo sapiens, HEK293; eIF4E phosphorylation at Serine 209, 2 hours exposure; read-out: HEK 293 cell;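 note: Well-level p-eIF4E immunofluorescence normalized to DAPI signal, expressed as percent eIF4E phosphorylation, with IC50 derived from concentration-response curves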
[2] = molecular target: T1, recombinant full length human kinase MNK2 (Homo sapiens, UniProt Q9HBH9); assay: MNK2 radiometric kinase activity assay; format: biochemical
T1 construct: the recombinant full length human kinase MNK2; made in house; host or cells: insect cells
T1 sequence (Q9HBH9 whole entry): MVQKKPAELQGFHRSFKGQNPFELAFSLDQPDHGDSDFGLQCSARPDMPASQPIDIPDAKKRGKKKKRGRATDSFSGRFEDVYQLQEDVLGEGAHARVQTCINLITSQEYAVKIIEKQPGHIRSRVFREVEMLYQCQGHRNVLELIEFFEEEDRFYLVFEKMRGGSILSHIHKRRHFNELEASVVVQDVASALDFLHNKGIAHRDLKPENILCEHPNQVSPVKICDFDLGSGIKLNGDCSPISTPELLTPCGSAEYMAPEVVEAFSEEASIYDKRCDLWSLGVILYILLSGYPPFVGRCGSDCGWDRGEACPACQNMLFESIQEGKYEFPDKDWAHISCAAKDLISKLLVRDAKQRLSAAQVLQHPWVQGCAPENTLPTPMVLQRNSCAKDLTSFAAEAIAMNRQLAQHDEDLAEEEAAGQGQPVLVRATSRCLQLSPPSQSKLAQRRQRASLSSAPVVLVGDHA

[3] = molecular target: T2, recombinant full-length human kinase MNK1 (Homo sapiens, UniProt Q9BUB5); assay: MNK1 radiometric kinase activity assay; format: biochemical
T2 construct: the recombinant full-length human kinase MNK1; made in house; host or cells: insect cells
T2 sequence (Q9BUB5 whole entry): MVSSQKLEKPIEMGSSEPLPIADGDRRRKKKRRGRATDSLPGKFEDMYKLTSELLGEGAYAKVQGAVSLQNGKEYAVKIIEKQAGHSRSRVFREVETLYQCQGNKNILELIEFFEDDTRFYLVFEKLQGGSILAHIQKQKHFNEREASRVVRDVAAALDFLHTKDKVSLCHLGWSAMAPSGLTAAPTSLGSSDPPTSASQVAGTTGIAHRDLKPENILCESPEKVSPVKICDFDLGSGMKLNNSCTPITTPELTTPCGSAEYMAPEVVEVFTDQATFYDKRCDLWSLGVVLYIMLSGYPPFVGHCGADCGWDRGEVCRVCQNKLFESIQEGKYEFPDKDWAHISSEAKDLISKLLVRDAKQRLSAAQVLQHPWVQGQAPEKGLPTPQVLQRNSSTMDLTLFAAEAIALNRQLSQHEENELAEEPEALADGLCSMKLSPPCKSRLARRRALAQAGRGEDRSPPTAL

[4] = tested on: P-gp (human MDR1, ABCB1); assay: MDCK-MDR1 permeability (blood-brain barrier permeability); conditions: dog
[5] = Liver microsome stability; conditions: mouse, liver microsomes
[6] = radiometric activity assay, read-out: MNK2
[7] = radiometric activity assay, read-out: MNK1

SMILES	IC50 [1] [nM]	IC50 [2, 6] [nM]	IC50 [3, 7] [nM]	IC50 [2] [nM]	IC50 [3] [nM]	Papp A→B at 5 uM [4] [×10⁻⁶ cm/s]	Papp B→A at 5 uM [4] [×10⁻⁶ cm/s]	efflux ratio at 5 uM [4]	half-life [5] [h]
Cc1cc(Nc2cc(N)ncn2)c(=O)n2c1C(=O)NC21CC2(CCC2)C1 [4ET-01-009, 6″-((6-aminopyrimidin-4-yl)amino)-8″-methyl-2″H-dispiro[cyclobutane-1,1′-cyclobutane-3′,3″-imidazo[1,5-a]pyridine]-1″,5″-dione]	3.6	0.8	13.1	–	–	–	–	–	–
Cc1cc(Nc2cc(N)ncn2)c(=O)n2c1C(=O)NC21CCC2(CC1)CN2 (stereo not drawn) [4ET-01-012, 6″-((6-aminopyrimidin-4-yl)amino)-8″-methyl-2″H-dispiro[aziridine-2,1′-cyclohexane-4′,3″-imidazo[1,5-a]pyridine]-1″,5″-dione]	57.1	–	–	3	27.9	–	–	–	–
Cc1cc(Nc2cc(N)ncn2)c(=O)n2c1C(=O)NC21CCC2(CCCC2)C1 (stereo not drawn) [4ET-01-016, 6″-((6-aminopyrimidin-4-yl)amino)-8″-methyl-2″H-dispiro[cyclopentane-1,1′-cyclopentane-3′,3″-imidazo[1,5-a]pyridine]-1″,5″-dione]	8.9	3.5	33	–	–	48.6	46.5	1	11.3
Cc1cc(Nc2cc(N)ncn2)c(=O)n2c1C(=O)NC21CC2(CC(F)(F)C2)C1 [4ET-01-017, 6″-((6-aminopyrimidin-4-yl)amino)-3,3-difluoro-8″-methyl-2″H-dispiro[cyclobutane-1,1′-cyclobutane-3′,3″-imidazo[1,5-a]pyridine]-1″,5″-dione]	41.6	7.9	69.2	–	–	29	47.2	1.6	4.35
Cc1cc(Nc2cc(N)ncn2)c(=O)n2c1C(=O)NC21CC2(CCCC2)C1 [4ET-01-018, 6″-((6-aminopyrimidin-4-yl)amino)-8″-methyl-2″H-dispiro[cyclopentane-1,1′-cyclobutane-3′,3″-imidazo[1,5-a]pyridine]-1″,5″-dione]	4.1	4.1	41.8	–	–	50.8	66.7	1.3	0.853
Cc1cc(Nc2cc(N)ncn2)c(=O)n2c1C(=O)NC21CCC2(CCC2)CC1 [4ET-01-019, 6″-((6-aminopyrimidin-4-yl)amino)-8″-methyl-2″H-dispiro[cyclobutane-1,1′-cyclohexane-4′,3″-imidazo[1,5-a]pyridine]-1″,5″-dione]	4.9	4.2	43.9	–	–	43.9	71.9	1.6	4.2
Cc1cc(Nc2cc(N)ncn2)c(=O)n2c1C(=O)NC21CC2(CCCCC2)C1 [4ET-01-020, 6″-((6-aminopyrimidin-4-yl)amino)-8″-methyl-2″H-dispiro[cyclohexane-1,1′-cyclobutane-3′,3″-imidazo[1,5-a]pyridine]-1″,5″-dione]	4.3	3	36	–	–	46.7	70.7	1.5	0.793
Cc1cc(Nc2cc(N)ncn2)c(=O)n2c1C(=O)NC21CCCC2(CC2)C1 (stereo not drawn) [4ET-01-042, 6″-((6-Aminopyrimidin-4-yl)amino)-8″-methyl-2″H-dispiro[cyclopropane-1,1′-cyclohexane-3′,3″-imidazo[1,5-a]pyridine]-1″,5″-dione]	0.8	2	16.5	–	–	50.4	68.9	1.4	1.88
Cc1cc(Nc2cc(NC(=O)C3CC3)ncn2)c(=O)n2c1C(=O)NC21CC2(CCC2)C1 [4ET-03-043, N-(6-((8″-methyl-1″,5″-dioxo-1″,5″-dihydro-2″H-dispiro[cyclobutane-1,1′-cyclobutane-3′,3″-imidazo[1,5-a]pyridin]-6″-yl)amino)pyrimidin-4-yl)cyclopropanecarboxamide]	0.9	1.7	44.9	–	–	27.4	56.3	2.1	3.35
CCOC(=O)C1CC12CCC1(CC2)NC(=O)c2c(C)cc(Nc3cc(NC(=O)C4CC4)ncn3)c(=O)n21 (stereo not drawn) [4ET-03-045, ethyl 6″-((6-(cyclopropanecarboxamido)pyrimidin-4-yl)amino)-8″-methyl-1″,5″-dioxo-1″,5″-dihydro-2″H-dispiro [cyclopropane-1,1′-cyclohexane-4′,3″-imidazo[1,5-a]pyridine]-2-carboxylate]	17.7	12.1	131	–	–	–	–	–	–
Cc1cc(Nc2cc(NC(=O)C3CC3)ncn2)c(=O)n2c1C(=O)NC21CCC2(CC1)CN2C(=O)OCc1ccccc1 (stereo not drawn) [4ET-03-046]	6.4	1.7	49.8	–	–	–	–	–	–
Cc1cc(Nc2cc(NC(=O)C3CC3)ncn2)c(=O)n2c1C(=O)NC21CCC2(CC1)CN(C(=O)OC(C)(C)C)C2 [4ET-03-048, tert-butyl 6″-((6-(cyclopropanecarboxamido)pyrimidin-4-yl)amino)-8″-methyl-1″,5″-dioxo-1″,5″-dihydro-2″H-dispiro[azetidine-3,1′-cyclohexane-4′,3″-imidazo[1,5-a]pyridine]-1-carboxylate]	6.1	5.2	145	–	–	–	–	–	–
Cc1cc(Nc2cc(NC(=O)C3CC3)ncn2)c(=O)n2c1C(=O)NC21CCC2(CC1)CNC2 [4ET-03-049, N-(6-((8″-methyl-1″,5″-dioxo-1″,5″-dihydro-2″H-dispiro[azetidine-3,1′-cyclohexane-4′,3″-imidazo1[1,5-a]pyridin]-6″-yl)amino)pyrimidin-4-yl)cyclopropanecarboxamide]	110	2.8	80	–	–	0.3	0.7	2.1	2.43
Cc1cc(Nc2cc(NC(=O)C3(CN)CC3)ncn2)c(=O)n2c1C(=O)NC21CCC2(CC2)CC1 [4ET-03-055, 1-(aminomethyl)-N-(6-((8″-methyl-1″,5″-dioxo-1″,5″-dihydro-2″H-dispiro[cyclopropane-1,1′-cyclohexane-4′,3″-imidazo[1,5-a]pyridin]-6″-yl)amino)pyrimidin-4-yl)cyclopropane-1-carboxamide]	44	29.5	127	–	–	3	57.6	19	–
Cc1cc(Nc2cc(NC(=O)[C@H]3[C@@H]4CNC[C@@H]43)ncn2)c(=O)n2c1C(=O)NC21CCC2(CC2)CC1 [4ET-03-056, (1R,5S,6r)-N-(6-((8″-methyl-1″,5″-dioxo-1″,5″-dihydro-2″H-dispiro[cyclopropane-1,1′-cyclohexane-4′,3″-imidazo[1,5-a]pyridin]-638-yl)amino)pyrimidin-4-yl)-3-azabicyclo[3.1.0]hexane-6-carboxamide]	11.1	3.5	51.8	–	–	0.5	15.9	31.8	2.95
Cc1cc(Nc2cc(NC(=O)C3CC4(C3)CN(C)C4)ncn2)c(=O)n2c1C(=O)NC21CCC2(CC2)CC1 [4ET-03-060, 2-methyl-N-(6-((8″-methyl-1″,5″-dioxo-1″,5″-dihydro-2″H-dispiro[cyclopropane-1,1′-cyclohexane-4′,3″-imidazo[1,5-a]pyridin]-638-yl)amino)pyrimidin-4-yl)-2-azaspiro[3.3]heptane-6-carboxamide]	6.5	1.7	31	–	–	–	–	–	–
Cc1cc(Nc2cc(NC(=O)[C@H]3[C@@H]4CN(C)C[C@@H]43)ncn2)c(=O)n2c1C(=O)NC21CCC2(CC2)CC1 [4ET-03-061, (1R,5S,6r)-3-methyl-N-(6-((8″-methyl-1″,5″-dioxo-1″,5″-dihydro-2″H-dispiro[cyclopropane-1,1′-cyclohexane-4′,3″-imidazo[1,5-a]pyridin]-638-yl)amino)pyrimidin-4-yl)-3-azabicyclo[3.1.0]hexane-6-carboxamide]	5.2	1.7	36.2	–	–	–	–	–	–
Cc1cc(Nc2cc(N)ncn2)c(=O)n2c1C(=O)NC21CCC2(CC1)CC2(F)F (stereo not drawn) [4ET-03-068, 6″-((6-aminopyrimidin-4-yl)amino)-2,2-difluoro-8″-methyl-2″H-dispiro[cyclopropane-1,1′-cyclohexane-4′,3″-imidazo[1,5-a]pyridine]-1″,5″-dione]	3.4	1.5	25.3	–	–	18.7	71	3.8	4.93
Cc1cc(Nc2cc(NC(=O)C3(CNS(C)(=O)=O)CC3)ncn2)c(=O)n2c1C(=O)NC21CCC2(CC2)CC1 [4ET-03-076, N-(6-((8″-methyl-1″,5″-dioxo-1″,5″-dihydro-2″H-dispiro[cyclopropane-1,1′-cyclohexane-4′,3″-imidazo[1,5-a]pyridin]-638-yl)amino)pyrimidin-4-yl)-1-(methylsulfonamidomethyl)cyclopropane-1-carboxamide]	–	12.2	37.5	–	–	–	–	–	–
Cc1cc(Nc2cc(NC(=O)C3(CN(C)C)CC3)ncn2)c(=O)n2c1C(=O)NC21CCC2(CC2)CC1 [4ET-03-081, 1-((dimethylamino)methyl)-N-(6-((8″-methyl-1″,5″-dioxo-1″,5″-dihydro-2″H-dispiro[cyclopropane-1,1′-cyclohexane-4′,3″-imidazo[1,5-a]pyridin]-6″-yl)amino)pyrimidin-4-yl)cyclopropane-1-carboxamide]	–	10.1	30.3	–	–	17.1	23.4	1.4	1.24
